Laboratory results from PMC12452389, “Arginine-Derived Cationic Surfactants Containing Phenylalanine and Tryptophan: Evaluation of Antifungal Activity, Biofilm Eradication, Cytotoxicity, and Ecotoxicity” (Journal of Xenobiotics, 2025).
≈ marks a conversion by molar mass, not a printed value. Read-outs that look alike come from different tables or passages of the source.

Experiments:
[1] = system: Candida glabrata ATCC 66032; experiment: MIC broth microdilution; format: cell-based; settings: for MIC: Nakaseomyces glabratus, read-out: MIC
Procedure: (§1) The antimicrobial activity of these compounds was assessed against selected yeast and bacterial strains: Candida albicans ATCC 90028 (CA9), Candida rugosa ATCC 10571 (CR), Candida glabrata ATCC 66032 (CG), Candida parapsilosis ATCC 22019 (CP), Candida tropicalis ATCC 7349 (CT), Candida auris ATCC 21092 (CA), and Cyberlindnera jadinii ATCC 60459. Frozen yeast stocks were plated on Sabouraud agar (SBA) and incubated at 30 °C for 24 h. Three to four colonies from each strain were then suspended in RPMI 1640 (Roswell Park Memorial Institute medium, Sigma- Aldrich, Merck, Darmstadt, Germany) to prepare bacterial dispersions of ~1.5 × 10^6 CFU/mL.
(§2) A broth microdilution assay was used to calculate MIC values. Twofold serially diluted compounds in RPMI 1640 medium (from 256 to 2 μg/mL), were dispensed (100 μL per well) into a 96-well plate. Then, 100 μL of a yeast starter culture was added to each well to reach a final inoculum of 7.5 × 10^5 CFU/mL. Wells containing only nutrient broth without the tested surfactant served as growth controls. Microbial growth was assessed by turbidity, which reflects increases in biomass and cell count. […] To confirm the obtained MICs, 20 μL of 0.015% (w/v) resazurin was dispensed to each well and incubated for 3 h at 30 °C. Metabolic activity was evidenced by a color change from blue to pink, thereby confirming the MIC value.

[2] = system: Candida rugosa ATCC 10571; experiment: MIC broth microdilution; format: cell-based; settings: C. rugosa; for MIC: Diutina rugosa, ATCC10571, read-out: MIC
Procedure: as §1, §2

[3] = system: Candida parapsilosis ATCC 22019; experiment: MIC broth microdilution; format: cell-based; settings: C. parapsilosis; for MIC: Lodderomyces parapsilosis, ATCC22019, read-out: MIC
Procedure: as §1, §2

[4] = system: Candida albicans ATCC 90028; experiment: MIC broth microdilution; format: cell-based; settings: C. albicans; for MIC: Candida albicans, ATCC90028, read-out: MIC
Procedure: as §1, §2

[5] = system: Candida tropicalis ATCC 7349; experiment: MIC broth microdilution; format: cell-based; settings: C. tropicalis; for MIC: Candida tropicalis, ATCC7349, read-out: MIC
Procedure: as §1, §2

[6] = system: Candida auris ATCC 21092; experiment: MIC broth microdilution; format: cell-based; settings: C. auris; for MIC: Candidozyma auris, ATCC21092, read-out: MIC
Procedure: as §1, §2

[7] = system: Cyberlindnera jadinii ATCC 60459 (C. jardinii); experiment: MIC broth microdilution; format: cell-based; settings: for MIC: Williopsis jadinii, ATCC60459, C. jardinii, read-out: MIC
Procedure: as §1, §2

[8] = design: method as in PMID 36559096; settings: conductivity values; cited from earlier work
[9] = system: erythrocytes; experiment: Hemolytic activity assay; format: cell-based; settings: rabbit erythrocytes
Procedure: Fresh rabbit blood was obtained from the Animal Facility of the CID-CSIC (Research and Development Center, Spanish National Research Council, Barcelona, Spain). Sample collection was conducted in strict compliance with the bioethical guidelines established under Spanish legislation. Erythrocytes were isolated by centrifugation (3000 rpm/10 min). The supernatant was discarded, and the erythrocytes were washed three times with PBS (phosphate-buffered saline, pH 7.4) and then resuspended in PBS at a concentration of 8 × 10^9 cells/mL. Subsequently, varying volumes of a concentrated surfactant solution were added to Eppendorf tubes containing 25 μL of erythrocyte suspension. PBS was then added to bring the total volume to 1 mL. The samples were gently shaken for 10 min at room temperature and centrifuged at 10,000 rpm for 5 min. Hemolysis was evaluated by measuring the absorbance of the supernatant at 540 nm and comparing it to that of a 100% hemolysis control (erythrocytes treated with distilled water). The HC50, defined as the surfactant concentration that induces 50% hemolysis, was determined from the concentration–response curves: % hemolysis= Abstest compound/AbsBasal haemolytic activity ×100

[10] = system: Vibrio fischeri; experiment: Luminescence reduction test; format: cell-based; settings: Aliivibrio fischeri, 0.25 h; Vibrio fischeri bioluminescence, 15 min of exposure; 95% confidence intervals in parentheses
Procedure: Ecotoxicological assessment of cationic surfactants was conducted using the Vibrio fischeri luminescent bioassay. This method relies on the measurement of decreased bioluminescent output from marine bacteria following contact with potentially toxic substances. Regression analysis was used to determine the concentration of the compound that caused a 50% reduction (EC50) in the amount of light emitted by the bacteria. The stated toxicity statistics given are based on the bacteria being exposed to the ionic liquid solution for 15 min at 15 °C.

[11] = Surface tension, pendant drop tensiometer (cmc, γc); format: physicochemical
Procedure: Surface tension was measured using a custom-built pendant drop tensiometer, as described in detail in reference. Briefly, a droplet of surfactant solution is formed at the tip of a straight-cut Teflon tube. The image of the droplet is captured using a webcam, and its shape is analyzed by fitting the droplet profile to the Laplace–Young equation [14], To minimize evaporation, all measurements were conducted in a saturated humid atmosphere. The use of this technique is especially well-suited for cationic surfactants because it helps to mitigate complications related to surface adsorption. Critical micelle concentration values (cmc) were determined by finding the intersection of the linear fits before and after the break in the curves.

[12] = system: Daphnia magna; experiment: Acute toxicity, immobilization test; format: in vivo; settings: Daphnia magna, 48 h
Procedure: Aquatic toxicity evaluation was performed using Daphnia magna following established protocols. This bioassay method employs laboratory-cultured freshwater microcrustaceans to evaluate surfactant toxicity in aquatic environments. Test organisms were utilized during their initial 24 h life stage to ensure consistency. The endpoint measurement focused on mobility impairment, specifically the loss of swimming capability after gentle stimulation lasting 15 s. Testing conditions included controlled water chemistry parameters: pH maintained at 8.0, calcium-to-magnesium ratio of 4:1, and total hardness of 250 mg/L as CaCO3. All experiments were conducted under dark conditions at 20 °C. The experimental design incorporated ten test concentrations for each surfactant compound, distributed in geometric progression. Each concentration level included 20 Daphnia specimens distributed across four replicate groups of five organisms each. Mobility assessment occurred at 48 h post-exposure, with immobilization percentages plotted against concentration using probability–logarithmic scaling.

[13] = system: S. aureus SH1000; design: method as in PMID 19889790; settings: cited from earlier work
[14] = system: S. aureus SH1000; design: method as in PMID 19889790; settings: cited from earlier work; remark: listed apart in the source
[15] = ATCC66032, 24 h, C. glabrata, RPMI 1640, 24 h, 30 °C
[16] = ATCC66032, C. glabrata, value in parentheses

| Compound | MIC [1, 15] [µg/mL] | MIC [1, 16] [µM] | MIC ([2]; RPMI 1640, 24 h, 30 °C) [µg/mL] | MIC ([2]; value in parentheses) [µM] | MIC ([3]; RPMI 1640, 24 h, 30 °C) [µg/mL] | MIC ([3]; value in parentheses) [µM] | MIC ([4]; RPMI 1640, 24 h, 30 °C) [µg/mL] | MIC ([4]; value in parentheses) [µM] | MIC ([5]; RPMI 1640, 24 h, 30 °C) [µg/mL] | MIC ([5]; value in parentheses) [µM] | MIC ([6]; RPMI 1640, 24 h, 30 °C) [µg/mL] | MIC ([6]; value in parentheses) [µM] | MIC ([7]; RPMI 1640, 24 h, 30 °C) [µg/mL] | MIC ([7]; value in parentheses) [µM] | MIC [13] [µg/mL] | MBEC [14] [µg/mL] | other results |
| --- | --- | --- | --- | --- | --- | --- | --- | --- | --- | --- | --- | --- | --- | --- | --- | --- | --- |
| CCCCCCCCNC(=O)C(CCCNC(=N)N)NC(=O)C(N)Cc1ccccc1 (stereo not shown) [PANHC8] | 256 | 512 | > 256 | > 512 | 256 | 512 | > 256 | > 512 | 256 | 512 | > 256 | > 512 | > 256 | > 512 | – | – | – |
| CCCCCCCCCCCCCCNC(=O)C(CCCNC(=N)N)NC(=O)C(N)Cc1c[nH]c2ccccc12 (stereo not shown) [TANHC14] | 8 | 14 | 4 | 7 | 16 | 25 | 16 | 25 | 4 | 7 | 16 | 25 | 8 | 14 | – | – | cmc Cond [8]: 0.3 mM; Selectivity Index (HC50/MIC) ([1]; C. glabrata, Table S2): 1.9; Selectivity Index (HC50/MIC) ([2]; Table S2): 3.7; Selectivity Index (HC50/MIC) ([3]; Table S2): 1.1; Selectivity Index (HC50/MIC) ([4]; Table S2): 1.1; Selectivity Index (HC50/MIC) ([5]; Table S2): 3.7; Selectivity Index (HC50/MIC) ([6]; Table S2): 1.1; Selectivity Index (HC50/MIC) ([7]; C. jardini, Table S2): 1.9; HC50 ([9]; 10 min, room temperature): 16 ± 0.18 µg/mL; HC50 ([9]; value in parentheses): 26 ± 0.3 µM; EC50 [10]: 2.6 µg/mL (≈ 4.68 µM); γc (surface tension at the cmc) [11]: 32.8 ± 1.2 mNm^−1; cmc ([11]; from surface tension): 0.7 mM; EC50 [12]: 0.85 µg/mL (≈ 1.53 µM) |
| O=C(O)c1cn(C2CC2)c2cc(N3CCNCC3)c(F)cc2c1=O [ciprofloxacin] | – | – | – | – | – | – | – | – | – | – | – | – | – | – | 4 (≈ 12.1 µM) | > 256 | – |
| CCCCCCCCCCCCCCCC[N+](C)(C)C.[Br-] [CTAB] | – | – | – | – | – | – | – | – | – | – | – | – | – | – | 2 | > 256 | – |
